# Assay results published in ChEMBL document CHEMBL1165953, “Synthesis and biological evaluation of 4(5)-(6-methylpyridin-2-yl)imidazoles and -pyrazoles as transforming growth factor-beta type 1 receptor kinase inhibitors” (Bioorg Med Chem, 2010).
# Columns and labels:
# [1] = Aqueous solubility in buffer solution at pH 1.2; format: physicochemical
# [2] = Metabolic stability assessed as 3-((4-(2-hydroxyquinolin-6-yl)-5-(6-methylpyridin-2-yl)-1H-imidazol-2-yl)methyl)benzamide or 3-((4-(3-hydroxyquinolin-6-yl)-5-(6-methylpyridin-2-yl)-1H-imidazol-2-yl)methyl)benzamide levels at 120 uM by HPLC analysis in presence human recombinant CYP3A4; format: ADME; settings: recombinant enzyme
# [3] = Metabolic stability assessed as 3-((4-(2-hydroxyquinolin-6-yl)-5-(6-methylpyridin-2-yl)-1H-imidazol-2-yl)methyl)benzamide or 3-((4-(3-hydroxyquinolin-6-yl)-5-(6-methylpyridin-2-yl)-1H-imidazol-2-yl)methyl)benzamide levels at 120 uM by HPLC analysis in presence human recombinant CYP2C19; format: ADME; settings: recombinant enzyme
# [4] = target: Platelet-derived growth factor receptor alpha (Homo sapiens, UniProt P16234); assay: Inhibition of PDGFRalpha
# Sequence of Platelet-derived growth factor receptor alpha (P16234 whole entry): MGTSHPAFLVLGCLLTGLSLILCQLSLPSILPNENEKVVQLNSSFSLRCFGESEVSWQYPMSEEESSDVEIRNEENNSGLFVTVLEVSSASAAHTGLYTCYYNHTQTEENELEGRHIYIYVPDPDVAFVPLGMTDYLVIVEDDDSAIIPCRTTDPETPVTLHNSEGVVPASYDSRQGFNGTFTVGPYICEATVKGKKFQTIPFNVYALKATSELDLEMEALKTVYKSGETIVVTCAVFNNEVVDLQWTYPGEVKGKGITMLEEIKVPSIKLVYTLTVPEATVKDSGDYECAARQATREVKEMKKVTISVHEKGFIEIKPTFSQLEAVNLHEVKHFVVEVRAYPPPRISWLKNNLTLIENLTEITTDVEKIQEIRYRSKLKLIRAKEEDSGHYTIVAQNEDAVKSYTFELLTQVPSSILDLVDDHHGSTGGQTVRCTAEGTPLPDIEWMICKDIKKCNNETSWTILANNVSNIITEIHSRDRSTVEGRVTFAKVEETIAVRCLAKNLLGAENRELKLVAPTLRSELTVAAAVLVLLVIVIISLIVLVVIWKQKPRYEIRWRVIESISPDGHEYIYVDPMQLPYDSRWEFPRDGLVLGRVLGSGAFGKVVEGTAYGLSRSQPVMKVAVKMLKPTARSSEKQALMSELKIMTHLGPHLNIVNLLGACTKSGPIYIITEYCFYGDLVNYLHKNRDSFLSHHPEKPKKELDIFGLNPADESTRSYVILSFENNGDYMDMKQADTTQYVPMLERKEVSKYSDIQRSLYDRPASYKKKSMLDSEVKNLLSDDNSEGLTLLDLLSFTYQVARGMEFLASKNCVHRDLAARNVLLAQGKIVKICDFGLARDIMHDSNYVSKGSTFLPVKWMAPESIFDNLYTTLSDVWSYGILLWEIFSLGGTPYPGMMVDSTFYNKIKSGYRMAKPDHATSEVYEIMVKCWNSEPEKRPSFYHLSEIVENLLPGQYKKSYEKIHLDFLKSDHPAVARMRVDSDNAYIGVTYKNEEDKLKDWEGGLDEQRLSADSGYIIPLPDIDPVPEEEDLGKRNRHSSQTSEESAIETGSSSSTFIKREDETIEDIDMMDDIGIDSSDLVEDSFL
# [5] = target: Vascular endothelial growth factor receptor 1 (Homo sapiens, UniProt P17948); assay: Inhibition of VEGFR1
# TGF-beta receptor type-1 = target: T1, TGF-beta receptor type-1 (Homo sapiens, UniProt P36897)
# T1 sequence (P36897 whole entry): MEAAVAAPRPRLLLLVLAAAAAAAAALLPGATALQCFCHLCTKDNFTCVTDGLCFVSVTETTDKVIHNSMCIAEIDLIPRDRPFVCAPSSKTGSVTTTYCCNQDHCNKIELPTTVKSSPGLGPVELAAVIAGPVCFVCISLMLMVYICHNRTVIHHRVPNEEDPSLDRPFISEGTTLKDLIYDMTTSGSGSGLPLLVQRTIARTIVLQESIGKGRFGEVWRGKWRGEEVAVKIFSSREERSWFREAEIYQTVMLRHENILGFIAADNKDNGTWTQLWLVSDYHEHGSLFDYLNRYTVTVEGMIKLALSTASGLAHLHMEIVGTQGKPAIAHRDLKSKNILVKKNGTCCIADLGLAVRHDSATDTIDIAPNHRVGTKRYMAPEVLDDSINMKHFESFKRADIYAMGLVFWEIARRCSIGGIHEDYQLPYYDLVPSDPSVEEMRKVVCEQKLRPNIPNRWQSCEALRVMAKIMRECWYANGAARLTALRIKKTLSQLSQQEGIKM
# Description: Inhibition of human recombinant GST-fused ALK5 expressed in Sf9 cells
# [6] = target: Vascular endothelial growth factor receptor 3 (Homo sapiens, UniProt P35916); assay: Inhibition of VEGFR3
# Sequence of Vascular endothelial growth factor receptor 3 (P35916 whole entry): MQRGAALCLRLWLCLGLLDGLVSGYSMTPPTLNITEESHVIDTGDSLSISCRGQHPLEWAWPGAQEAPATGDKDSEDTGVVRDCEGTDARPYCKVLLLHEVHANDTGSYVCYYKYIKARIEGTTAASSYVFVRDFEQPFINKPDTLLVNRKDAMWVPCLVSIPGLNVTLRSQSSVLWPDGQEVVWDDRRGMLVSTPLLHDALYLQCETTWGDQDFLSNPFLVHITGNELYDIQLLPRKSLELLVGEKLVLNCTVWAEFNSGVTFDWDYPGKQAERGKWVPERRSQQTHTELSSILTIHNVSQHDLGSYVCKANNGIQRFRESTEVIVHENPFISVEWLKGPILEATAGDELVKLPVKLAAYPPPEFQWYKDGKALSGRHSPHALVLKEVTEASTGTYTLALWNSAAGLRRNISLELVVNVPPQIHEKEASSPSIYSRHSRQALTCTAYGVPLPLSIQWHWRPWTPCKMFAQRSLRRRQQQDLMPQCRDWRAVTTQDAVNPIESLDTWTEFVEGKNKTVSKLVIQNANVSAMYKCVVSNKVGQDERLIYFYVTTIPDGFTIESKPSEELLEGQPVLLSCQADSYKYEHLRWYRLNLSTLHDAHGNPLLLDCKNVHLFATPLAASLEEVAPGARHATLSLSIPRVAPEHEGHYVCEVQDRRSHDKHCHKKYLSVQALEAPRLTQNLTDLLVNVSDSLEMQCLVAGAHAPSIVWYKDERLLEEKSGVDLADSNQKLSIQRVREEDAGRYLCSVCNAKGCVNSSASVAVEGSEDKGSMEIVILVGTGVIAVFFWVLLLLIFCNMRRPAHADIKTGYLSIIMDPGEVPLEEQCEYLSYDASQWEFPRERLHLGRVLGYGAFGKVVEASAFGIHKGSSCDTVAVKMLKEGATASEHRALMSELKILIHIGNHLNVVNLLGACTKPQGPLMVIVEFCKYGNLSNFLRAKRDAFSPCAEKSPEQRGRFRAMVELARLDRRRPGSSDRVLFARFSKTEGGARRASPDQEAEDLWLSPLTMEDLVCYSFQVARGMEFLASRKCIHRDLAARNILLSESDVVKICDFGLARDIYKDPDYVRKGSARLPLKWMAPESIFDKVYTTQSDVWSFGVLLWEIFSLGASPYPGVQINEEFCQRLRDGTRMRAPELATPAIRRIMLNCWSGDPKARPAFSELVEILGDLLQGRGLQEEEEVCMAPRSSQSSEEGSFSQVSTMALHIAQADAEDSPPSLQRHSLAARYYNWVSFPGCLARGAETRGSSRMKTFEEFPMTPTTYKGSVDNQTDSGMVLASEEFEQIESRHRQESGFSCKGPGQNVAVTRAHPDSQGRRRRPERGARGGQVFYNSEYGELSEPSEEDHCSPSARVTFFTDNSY
# [7] = target: Mitogen-activated protein kinase 14 (Homo sapiens, UniProt Q16539)
# Sequence of Mitogen-activated protein kinase 14 (Q16539 whole entry): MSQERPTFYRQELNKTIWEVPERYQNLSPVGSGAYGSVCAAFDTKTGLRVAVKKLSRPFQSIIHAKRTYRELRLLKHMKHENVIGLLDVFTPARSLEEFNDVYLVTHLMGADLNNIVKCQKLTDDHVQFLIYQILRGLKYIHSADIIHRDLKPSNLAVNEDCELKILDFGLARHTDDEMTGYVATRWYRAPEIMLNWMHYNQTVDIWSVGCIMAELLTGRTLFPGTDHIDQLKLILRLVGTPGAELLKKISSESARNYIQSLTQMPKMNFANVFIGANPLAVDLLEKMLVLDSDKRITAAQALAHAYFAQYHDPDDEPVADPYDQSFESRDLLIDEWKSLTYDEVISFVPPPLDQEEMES
# [8] = Metabolic stability assessed as 3-((4-(2-hydroxyquinolin-6-yl)-5-(6-methylpyridin-2-yl)-1H-imidazol-2-yl)methyl)benzamide or 3-((4-(3-hydroxyquinolin-6-yl)-5-(6-methylpyridin-2-yl)-1H-imidazol-2-yl)methyl)benzamide levels at 120 uM by HPLC analysis in presence human recombinant CYP2C8; format: ADME; settings: recombinant enzyme
# [9] = target: Vascular endothelial growth factor receptor 2 (Homo sapiens, UniProt P35968); assay: Inhibition of VEGFR2
# Sequence of Vascular endothelial growth factor receptor 2 (P35968 whole entry): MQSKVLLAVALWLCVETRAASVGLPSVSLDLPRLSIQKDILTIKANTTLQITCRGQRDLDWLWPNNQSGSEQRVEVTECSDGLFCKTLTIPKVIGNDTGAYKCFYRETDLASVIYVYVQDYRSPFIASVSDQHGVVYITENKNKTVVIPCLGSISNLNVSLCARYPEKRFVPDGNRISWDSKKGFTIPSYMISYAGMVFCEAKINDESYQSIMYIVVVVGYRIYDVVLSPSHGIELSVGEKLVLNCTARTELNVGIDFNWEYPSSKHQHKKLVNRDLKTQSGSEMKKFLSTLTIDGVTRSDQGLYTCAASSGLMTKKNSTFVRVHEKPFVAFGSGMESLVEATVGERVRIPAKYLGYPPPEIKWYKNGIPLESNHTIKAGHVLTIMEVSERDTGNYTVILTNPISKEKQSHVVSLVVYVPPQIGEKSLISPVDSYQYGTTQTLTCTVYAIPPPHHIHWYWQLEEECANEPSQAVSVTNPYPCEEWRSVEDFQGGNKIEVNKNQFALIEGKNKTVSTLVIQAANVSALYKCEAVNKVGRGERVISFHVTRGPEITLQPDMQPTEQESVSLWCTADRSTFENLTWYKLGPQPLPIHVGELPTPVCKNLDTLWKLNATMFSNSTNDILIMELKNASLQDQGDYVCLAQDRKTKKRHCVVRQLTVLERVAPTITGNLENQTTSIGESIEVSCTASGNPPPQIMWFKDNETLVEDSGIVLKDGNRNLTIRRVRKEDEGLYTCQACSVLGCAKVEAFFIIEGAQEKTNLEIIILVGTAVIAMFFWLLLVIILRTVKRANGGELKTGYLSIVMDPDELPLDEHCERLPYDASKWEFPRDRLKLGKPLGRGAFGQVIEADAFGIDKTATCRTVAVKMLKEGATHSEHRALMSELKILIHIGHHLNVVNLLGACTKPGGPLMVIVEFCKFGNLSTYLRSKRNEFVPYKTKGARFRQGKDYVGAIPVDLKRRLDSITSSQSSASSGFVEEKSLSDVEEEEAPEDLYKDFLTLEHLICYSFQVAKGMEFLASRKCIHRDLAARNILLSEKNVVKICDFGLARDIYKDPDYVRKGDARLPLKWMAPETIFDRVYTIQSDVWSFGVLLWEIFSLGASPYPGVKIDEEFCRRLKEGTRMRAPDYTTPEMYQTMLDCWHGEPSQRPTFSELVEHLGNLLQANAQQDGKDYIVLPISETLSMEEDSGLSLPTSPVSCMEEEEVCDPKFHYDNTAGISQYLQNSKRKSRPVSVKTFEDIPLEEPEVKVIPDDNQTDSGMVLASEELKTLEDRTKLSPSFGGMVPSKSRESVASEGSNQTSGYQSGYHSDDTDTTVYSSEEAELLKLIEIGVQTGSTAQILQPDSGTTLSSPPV
# [10] = target: T2, Serine/threonine-protein kinase D1 (Homo sapiens, UniProt Q15139); assay: Inhibition of PKCmu
# T2 sequence (Q15139 whole entry): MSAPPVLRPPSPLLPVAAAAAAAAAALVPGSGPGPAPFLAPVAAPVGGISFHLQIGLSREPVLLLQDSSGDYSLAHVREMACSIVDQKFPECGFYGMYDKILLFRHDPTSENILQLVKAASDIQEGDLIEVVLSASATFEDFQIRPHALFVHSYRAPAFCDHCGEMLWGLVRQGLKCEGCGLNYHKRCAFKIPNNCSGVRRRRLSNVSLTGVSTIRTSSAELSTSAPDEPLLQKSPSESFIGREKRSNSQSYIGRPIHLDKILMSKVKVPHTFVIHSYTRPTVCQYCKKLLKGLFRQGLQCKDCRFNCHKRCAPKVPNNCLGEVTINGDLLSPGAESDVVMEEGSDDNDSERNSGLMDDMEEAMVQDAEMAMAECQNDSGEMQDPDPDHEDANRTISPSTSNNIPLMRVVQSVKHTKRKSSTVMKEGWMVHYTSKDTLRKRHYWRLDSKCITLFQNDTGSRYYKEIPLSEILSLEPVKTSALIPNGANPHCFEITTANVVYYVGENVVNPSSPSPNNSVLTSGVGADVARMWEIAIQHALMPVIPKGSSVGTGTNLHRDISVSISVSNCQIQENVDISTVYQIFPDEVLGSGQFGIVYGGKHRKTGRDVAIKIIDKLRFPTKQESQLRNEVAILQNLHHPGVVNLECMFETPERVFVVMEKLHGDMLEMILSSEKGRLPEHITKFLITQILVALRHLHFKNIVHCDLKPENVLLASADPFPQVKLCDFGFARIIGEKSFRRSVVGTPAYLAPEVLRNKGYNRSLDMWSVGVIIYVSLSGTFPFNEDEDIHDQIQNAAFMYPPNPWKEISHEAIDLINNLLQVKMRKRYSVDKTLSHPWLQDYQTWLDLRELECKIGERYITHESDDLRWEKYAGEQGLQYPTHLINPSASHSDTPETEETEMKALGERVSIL
# [11] = Metabolic stability assessed as 3-((4-(2-hydroxyquinoxalin- 6-yl)-5-(6-methylpyridin-2-yl)-1H-imidazol-2-yl)methyl)benzamide or 3-((4-(3-hydroxyquinoxalin-6-yl)-5-(6-methylpyridin-2-yl)- 1H-imidazol-2-yl)methyl)benzamide) levels at 120 uM by HPLC analysis in presence human recombinant CYP3A4; format: ADME; settings: recombinant enzyme
# [12] = Metabolic stability assessed as 3-((4-(2-hydroxyquinoxalin- 6-yl)-5-(6-methylpyridin-2-yl)-1H-imidazol-2-yl)methyl)benzamide or 3-((4-(3-hydroxyquinoxalin-6-yl)-5-(6-methylpyridin-2-yl)- 1H-imidazol-2-yl)methyl)benzamide) levels at 120 uM by HPLC analysis in presence human recombinant CYP2C8; format: ADME; settings: recombinant enzyme
# [13] = Metabolic stability assessed as 3-((4-(2-hydroxyquinoxalin- 6-yl)-5-(6-methylpyridin-2-yl)-1H-imidazol-2-yl)methyl)benzamide or 3-((4-(3-hydroxyquinoxalin-6-yl)-5-(6-methylpyridin-2-yl)- 1H-imidazol-2-yl)methyl)benzamide) levels at 120 uM by HPLC analysis in presence human recombinant CYP2D6; format: ADME; settings: recombinant enzyme
# [14] = Metabolic stability assessed as 3-((4-(2-hydroxyquinoxalin- 6-yl)-5-(6-methylpyridin-2-yl)-1H-imidazol-2-yl)methyl)benzamide or 3-((4-(3-hydroxyquinoxalin-6-yl)-5-(6-methylpyridin-2-yl)- 1H-imidazol-2-yl)methyl)benzamide) levels at 120 uM by HPLC analysis in presence human recombinant CYP2C19; format: ADME; settings: recombinant enzyme
Structure (SMILES),solubility [1] [mg/mL],Stability [2] [peak area],Stability [3] [peak area],IC50 [4] [nM],IC50 [5] [nM],IC50 (TGF-beta receptor type-1) [nM],IC50 [6] [nM],IC50 [7] [nM],Stability [8] [peak area],IC50 [9] [nM],IC50 [10] [nM],Stability [11] [peak area],Stability [12] [peak area],Stability [13] [peak area],Stability [14] [peak area]
Cc1cccc(-c2[nH]c(Cc3cccc(C#N)c3)nc2-c2ccc3ncccc3c2)n1,7.1,,,,,,,,,,,,,,
Cc1cccc(-c2nc(Cc3cccc(C(N)=O)c3)[nH]c2-c2ccc3ncccc3c2)n1,14.3,10.6,11.3,3000,2100,34,940,540,1.99,2200,650,,,,
Cc1cccc(-c2[nH]c(Cc3cccc(C(N)=O)c3)nc2-c2ccc3nccnc3c2)n1,,,,,,,,,,,,17,33.4,15.4,12.4
